Source: PMC11005723, “Development of Complementary Photo‐arginine/lysine to Promote Discovery of Arg/Lys hPTMs Interactomes” (Advanced Science, 2024)

Legend:
RBBP4 = target: T1, RBBP4 (Homo sapiens, UniProt Q09028); experiment: ITC binding of native H3 peptides to RBBP4; conditions: H3R2me2a versus H3R2, from ITC Kd
T1 construct: DNA fragment encoding RBBP4/7 (1‐ 425) was cloned into pFBOH‐LIC donor plasmid; His (inferred from Ni-NTA purification; vector pFBOH-LIC); made in house; host or cells: sf9 insect cells (baculovirus)
Procedure: (§1) DNA fragment encoding RBBP4/7 (1‐ 425) was cloned into pFBOH‐LIC donor plasmid. The resulting plasmid was transformed into DH10Bac Competent E. coli cells (Invitrogen) and a recombinant Bacmid DNA was purified and followed by a recombinant baculovirus generation in sf9 insect cells. sf9 cells grown in HyQ SFX insect serum‐free medium (Thermo Scientific) were infected with 10 mL of P3 viral stocks per 1 L of suspension cell culture and incubated at 27 °C using a platform shaker set at 150 rpm. The cells were harvested by centrifugation (4000 rpm for 10 min at 4 °C) after 72 h of post‐infection time when viability dropped to 70–80%. […] Fractions were assessed by SDS‐PAGE electrophoresis and those containing pure protein were pooled, concentrated, and flash‐frozen for storage at −80 °C. […]

[1] = target: T2, tandem PHD domain of DPF2 (DPF2PHD) (Homo sapiens, UniProt Q92785); experiment: ITC binding of native H3 peptides to DPF2PHD; conditions: 25 °C, native H3_1‐15 peptides without diazirine and biotin, n = 2, representative data
T2 construct: His‐DPF2PHD (residues 270–391) domain in pET28‐MHL vector; His (N); made in house; host or cells: Escherichia coli BL21 (DE3)

RBBP7 = target: T3, RBBP7 (Homo sapiens, UniProt Q16576); experiment: ITC binding of native H3 peptides to RBBP7; conditions: H3R2me2a versus H3R2, from ITC Kd
T3 construct: DNA fragment encoding RBBP4/7 (1‐ 425) was cloned into pFBOH‐LIC donor plasmid; His (inferred from Ni-NTA purification; vector pFBOH-LIC); made in house; host or cells: sf9 insect cells (baculovirus)
Procedure: as §1

[2] = target: T4, PWWP domain of MSH6 (MSH6PWWP) (Homo sapiens, UniProt P52701); experiment: ITC binding of H3R2me2a to MSH6PWWP; conditions: 25 °C
T4 construct: His‐MSH6PWWP (residues 87–198) domain in pET28‐MHL vector; His (N); made in house; host or cells: Escherichia coli BL21 (DE3)
Procedure: His‐MSH6PWWP (residues 87–198) domain in pET28‐MHL vector. His‐ MSH6PWWP were expressed in Escherichia coli strain BL21 (DE3) (Novagen) with 0.5 mM IPTG induction at 16 °C in LB medium. After cell lysis by French Press Cell Disrupter (Thermo) and centrifugation, the supernatant was applied to a HisTrap (GE Healthcare) nickel column, and the bound protein was eluted with a linear imidazole gradient from 20 to 500 mM. And further purified by a HiLoad 16/60 Superdex 75 (GE Healthcare) gel filtration column. The pure protein were pooled and dialyzed in buffer (100 mM NaCl, 20 mM Tris, pH 7.5) with Slide‐A‐Lyzer (10000 MWCO). At last, the dialyzed protein were concentrated with to 5 mg mL^−1 and stored in −80 °C freezer for future use. Experiments were performed at 25 °C on a MicroCal PEAQ‐ITC automated (Malvern Instruments). Protein was loaded in the cell was titrated with 19 injections of peptides. The binding isotherm was fit with MicroCal PEAQ‐ITC Analysis software. The assay was done two times to confirm results.

[3] = target: T5, PHD domain of UHRF1 (UHRF1PHD) (Homo sapiens, UniProt Q96T88); experiment: ITC binding of H3 peptides to UHRF1PHD; conditions: 25 °C, 19 injections of peptide into protein, dz peptides carry pre‐installed biotin, done two times
T5 construct: the PHD domain of UHRF1 (UHRF1PHD)
T5 sequence (Q96T88 310-366 limits assumed): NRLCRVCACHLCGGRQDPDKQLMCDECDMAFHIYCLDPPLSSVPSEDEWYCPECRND
Procedure: Experiments were performed at 25 °C on a MicroCal PEAQ‐ITC automated (Malvern Instruments). Protein was loaded in the cell was titrated with 19 injections of peptides. The binding isotherm was fit with MicroCal PEAQ‐ITC Analysis software. The assay was done two times to confirm results.

T4 sequence (P52701 87-198): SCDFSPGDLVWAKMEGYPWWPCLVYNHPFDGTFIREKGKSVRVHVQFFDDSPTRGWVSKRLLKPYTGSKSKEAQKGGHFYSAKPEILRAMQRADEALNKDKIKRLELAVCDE
T2 sequence (Q92785 270-391): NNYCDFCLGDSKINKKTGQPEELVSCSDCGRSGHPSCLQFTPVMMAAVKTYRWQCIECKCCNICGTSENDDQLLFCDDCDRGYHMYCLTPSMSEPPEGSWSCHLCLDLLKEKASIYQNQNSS
T3 sequence (Q16576 whole entry, the tested form may be a part): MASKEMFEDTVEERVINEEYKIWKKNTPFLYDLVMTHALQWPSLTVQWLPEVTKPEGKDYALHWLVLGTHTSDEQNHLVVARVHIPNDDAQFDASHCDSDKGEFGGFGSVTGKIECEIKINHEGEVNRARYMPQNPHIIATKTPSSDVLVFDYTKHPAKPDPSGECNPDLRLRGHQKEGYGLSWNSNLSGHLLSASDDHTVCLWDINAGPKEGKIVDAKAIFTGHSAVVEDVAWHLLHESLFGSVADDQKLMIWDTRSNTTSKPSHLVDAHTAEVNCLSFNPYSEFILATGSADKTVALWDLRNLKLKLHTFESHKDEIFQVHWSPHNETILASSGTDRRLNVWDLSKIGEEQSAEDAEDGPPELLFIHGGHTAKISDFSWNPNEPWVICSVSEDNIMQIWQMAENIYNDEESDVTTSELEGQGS
T1 sequence (Q09028 whole entry, the tested form may be a part): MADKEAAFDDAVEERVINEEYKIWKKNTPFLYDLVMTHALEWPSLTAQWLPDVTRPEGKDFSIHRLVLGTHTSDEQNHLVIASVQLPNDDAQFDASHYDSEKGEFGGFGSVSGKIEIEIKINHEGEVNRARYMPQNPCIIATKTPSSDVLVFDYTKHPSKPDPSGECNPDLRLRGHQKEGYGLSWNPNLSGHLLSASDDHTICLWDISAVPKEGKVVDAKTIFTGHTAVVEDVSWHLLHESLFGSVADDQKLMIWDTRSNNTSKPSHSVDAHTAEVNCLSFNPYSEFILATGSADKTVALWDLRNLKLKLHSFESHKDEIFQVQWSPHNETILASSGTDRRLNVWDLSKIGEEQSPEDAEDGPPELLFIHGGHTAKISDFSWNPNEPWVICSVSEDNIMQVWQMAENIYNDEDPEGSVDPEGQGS

decrease in binding affinity by asymmetric methylation (RBBP4) (RBBP4)	Kd (DPF2PHD) [1]	decrease in binding affinity by asymmetric methylation (RBBP7) (RBBP7)	interaction with MSH6PWWP via ITC [2]	Kd [3] [µM]	SMILES
three–fourfold decrease	no binding affinity detected	three–fourfold decrease	undetectable		C[C@H](N)C(=O)N[C@@H](CCCNC(=N)N(C)C)C(=O)N[C@H](C(=O)N[C@@H](CCC1(CN)N=N1)C(=O)N[C@@H](CCC(N)=O)C(=O)N[C@H](C(=O)N[C@@H](C)C(=O)N[C@@H](CCCNC(=N)N)C(=O)N[C@@H](CCCCN)C(=O)N[C@@H](CO)C(=O)N[C@H](C(=O)NCC(=O)NCC(=O)N[C@@H](CCCCNC(=O)CCCC[C@@H]1SC[C@@H]2NC(=O)N[C@@H]21)C(=O)N[C@@H](C)C(N)=O)[C@@H](C)O)[C@@H](C)O)[C@@H](C)O [H3R2me2a]
				10.6	C[C@H](N)C(=O)N[C@@H](CC1(CNC(=N)N)N=N1)C(=O)N[C@H](C(=O)N[C@@H](CCCCN)C(=O)N[C@@H](CCC(N)=O)C(=O)N[C@H](C(=O)N[C@@H](C)C(=O)N[C@@H](CCCNC(=N)N)C(=O)N[C@@H](CCCCN)C(=O)N[C@@H](CO)C(=O)N[C@H](C(=O)NCC(=O)NCC(=O)N[C@@H](CCCCNC(=O)CCCC[C@@H]1SC[C@@H]2NC(=O)N[C@@H]21)C(=O)N[C@@H](C)C(N)=O)[C@@H](C)O)[C@@H](C)O)[C@@H](C)O [H3R2‐dz]
				6.4	C[C@H](N)C(=O)N[C@@H](CCCNC(=N)N)C(=O)N[C@H](C(=O)N[C@@H](CCC1(CN)N=N1)C(=O)N[C@@H](CCC(N)=O)C(=O)N[C@H](C(=O)N[C@@H](C)C(=O)N[C@@H](CCCNC(=N)N)C(=O)N[C@@H](CCCCN)C(=O)N[C@@H](CO)C(=O)N[C@H](C(=O)NCC(=O)NCC(=O)N[C@@H](CCCCNC(=O)CCCC[C@@H]1SC[C@@H]2NC(=O)N[C@@H]21)C(=O)N[C@@H](C)C(N)=O)[C@@H](C)O)[C@@H](C)O)[C@@H](C)O [H3K4‐dz]
